# Assay results: US7202239B2, “Cyclohexylphenyl carboxamides tocolytic oxytocin receptor antagonists” (Wyeth, priority 2001, dated 2007)
# Biological target: human vasopressin V1a receptor subtype (Homo sapiens, UniProt P37288)
# Assay: Vasopressin binding in CHO cell membranes expressing human vasopressin V1a subtype receptors
# Conditions: [3H]Manning ligand; for inhibition at 0.1 µM / V1a % inhibition at 100 nM: 100 nM; for IC50: value in parentheses
# Description: Vasopressin Binding in Chinese Hamster Ovary Cell Membranes Expressing Human Vasopressin V1a Subtype Receptors
# Chinese hamster ovary cells (CHO cells) stably transfected with the human vasopressin V1a subtype receptors were either obtained from Biosignal Inc., 1744 rue Williams, Montreal, Quebec, Canada or obtained from M. Thibonnier, Case Western Reserve University School of Medicine, Cleveland, Ohio. A. Passaging and Amplification of Cells: CHO cells transfected with the human vasopressin V1a subtype receptors obtained from M. Thibonnier (pZeoSV vector) are allowed to grow to confluency (approx. >90%) in T-150 flasks under sterile conditions, in a cell culture medium of F-12 Nutrient Mixture (HAM) with L-glutamine (Gibco Cat. # 11765-054) containing 15 mM HEPES (Gibco Cat. 15630-080), 1% antibiotic/antimycotic (add 5 mL 100×, Gibco Cat. 15240-062 per 500 mL F-12), 250 μg/mL Zeocin (add 1.25 mL of 100 mg/mL Invitrogen R-250-01 per 500 mL F-12) and 10% Fetal Bovine Serum (Qualified, heat inactivated, Gibco Cat. # 16140-063). The medium is removed by aspiration and the cells are washed with 10 mL of Hank's Balanced Salt solution (Gibco Cat. # 14175-095). The salt solution is removed by aspiration and the cells are trypsinized with 5 mL of trypsin-EDTA (0.05% trypsin, 0.53 mM EDTA-4Na, Gibco Cat. # 25300-070) for 1 min. The trypsin is removed by aspiration and the cells dislodged by tapping. Cell Culture medium (eg, 30 mL for 1:30 split) is immediately added and mixed well to inactivate trypsin. 1 mL of detached cells is added to new culture flasks containing fresh cell culture medium (eg, into 25 mL per T-150 flask), and mixed gently. The cells are incubated at 37° C. in 5% CO2. The medium is changed at 3 to 4 days interval (or as appropriate). The cells grow to confluency (approx. >75%–95%) within 7–8 days. All steps are done under sterile conditions. B. Membrane Preparation: The cells are washed twice gently with Hank's Balanced Salt solution (e.g,. use 10 mL per T-150 flask). The excess is removed and the cells are bathed for 15–30 min. in an enzyme-free Cell Dissociation Buffer (e.g. use 8 mL Hank's Based, Gibco Cat. # 13150-016 per T-150 flask) until the cells are loosened. The contents are transferred to centrifuge tubes (50 mL) kept in an ice bath. All subsequent steps are done at 4° C. The tubes are centrifuged at 300×g for 15 min (1380 rpm on SORVAL, Model RT6000D, using rotor for the 50 mL tubes). The supernatant is discarded and the cells suspended in homogeneizing buffer(10 mM Tris-HCl containing 0.25 M sucrose and 1 mM EDTA, pH 7.4) ensuring that the volume of the buffer is about ten times the volume of the cell pellet. The cells are pooled into a centrifuge tube (50 mL) and homogenized with Polytron at setting 6 for 10 sec. The homogenate is transferred into a Potter-Elvjehm homogenizer and homogenized with 3 strokes. The homogenate is centrifuged at 1500× g for 10 min at 4° C. (3100 rpm using SORVAL, model RT6000D, using the rotor for 50 mL tubes). The pellet is discarded. The supernatant is centrifuged at 100,000×g for 60 min. at 4° C. (Beckman L8-80M ultracentrifuge; spin at 37,500 rpm with rotor type 70 Ti for 50 mL tubes; 38,000 rpm with type 80Ti for 15 mL tubes; or 35,800 rpm with rotor type 45Ti). The supernantant is discarded and the pellet suspended in 3 to 4 mL of Tris buffer (50 mM TRIS-HCl, pH 7.4). The protein content is estimated by the Bradford or Lowry method. The volume of the membrane suspension is adjusted with the membrane buffer (50 mM Tris-HCl containing 0.1% BSA and 0.1 mM PMSF) to give 3.0 mg/mL (or as appropriate) of protein. The membranes are aliquoted and stored at −70° C. C. […]
# Sequence of human vasopressin V1a receptor subtype (P37288 whole entry): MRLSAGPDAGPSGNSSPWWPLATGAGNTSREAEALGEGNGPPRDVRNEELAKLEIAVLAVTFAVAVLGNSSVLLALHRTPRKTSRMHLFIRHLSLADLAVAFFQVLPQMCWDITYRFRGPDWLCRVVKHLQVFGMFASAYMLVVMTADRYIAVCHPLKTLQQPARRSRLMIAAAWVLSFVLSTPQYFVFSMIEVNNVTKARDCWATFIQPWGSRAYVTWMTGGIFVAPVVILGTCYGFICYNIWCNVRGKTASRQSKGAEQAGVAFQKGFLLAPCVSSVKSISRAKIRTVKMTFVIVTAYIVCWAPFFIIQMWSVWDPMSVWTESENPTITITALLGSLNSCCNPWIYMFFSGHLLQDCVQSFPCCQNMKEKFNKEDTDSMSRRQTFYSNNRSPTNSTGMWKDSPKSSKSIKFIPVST
SMILES,inhibition at 0.1 µM [%],further results
"O=C(c1ccc(C2CCCCC2)cc1)N1Cc2ccc(C(=O)C(Cl)(Cl)Cl)n2Cc2ccccc21 [Example 7, 2,2,2-Trichloro-1-[10-(4-cyclohexyl-benzoyl)-10,11-dihydro-5H-pyrrolo[2,1-c][1,4]benzodiazepin-3-yl]-1-ethanone]",4,
"CN(C)[C@@H]1CCN(C(=O)c2ccc3n2Cc2ccccc2N(C(=O)c2ccc(C4CCCCC4)cc2)C3)C1 [Example 47, [10-(4-Cyclohexyl-benzoyl)-10,11-dihydro-5H-pyrrolo[2,1-C][1,4]benzodiazepin-3-yl][(3R)-3-(dimethylamino)pyrrolidinyl]methanone]",,V1a % inhibition at 100 nM: 28%
"O=C(c1ccc2n1Cc1ccccc1N(C(=O)c1ccc(C3CCCCC3)cc1)C2)N1CCN(c2ccccn2)CC1 [Example 28, [10-(4-Cyclohexyl-benzoyl)-10,11-dihydro-5H-pyrrolo[2,1-c][1,4]benzodiazepine 3-yl][4-(2-pyridinyl)-1-piperazinyl]-methanone]",,IC50: > 1000 nM
"O=C(NNC(=O)c1ccc2n1Cc1ccccc1N(C(=O)c1ccc(C3CCCCC3)cc1)C2)Nc1ccccc1 [Example 15, 2-{[10-(4-Cyclohexyl-benzoyl)-10,11-dihydro-5H-pyrrolo[2,1-c][1,4]benzodiazepin-3-yl]carbonyl}-N-phenyl-1-hydrazinecarboxamide]",-4,
"Cc1cccc(C(=O)NNC(=O)c2ccc3n2Cc2ccccc2N(C(=O)c2ccc(C4CCCCC4)cc2)C3)c1 [Example 14, 10-(4-Cyclohexyl-benzoyl)-N′-(3-methyl-benzoyl)-10,11-dihydro-5H-pyrrolo[2,1-c][1,4]benzodiazepine-3-carbonyl-hydrazide]",,V1a % inhibition at 100 nM: 23%
"O=C(C(=O)N1CCC(N2CCCCC2)CC1)c1ccc2n1Cc1ccccc1N(C(=O)c1ccc(C3CCCCC3)cc1)C2 [Example 31, 1-[1.4′]Bipiperidinyl-1′-yl-2-[10-(4-cyclohexyl-benzoyl)-10,11-dihydro-5H-pyrrolo[2,1-c][1,4]benzodiazepin-3-yl]-ethane-1,2-dione]",,V1a % inhibition at 100 nM: 69%
"CN1CCN(C(=O)c2ccc3n2Cc2ccccc2N(C(=O)c2ccc(C4CCCCC4)cc2)C3)CC1 [Example 24, [10-(4-Cyclohexyl-benzoyl)-10,11-dihydro-5H-pyrrolo[2,1-c][1,4]benzodiazepin-3-yl](4-methyl-1-piperazinyl)-methanone]",,IC50: 203 nM
"O=C(NNC(=O)C1CC1)c1ccc2n1Cc1ccccc1N(C(=O)c1ccc(C3CCCCC3)cc1)C2 [Example 13, 10-(4-Cyclohexyl-benzoyl)-N′-(cyclopropylcarbonyl)-10,11-dihydro-5H-pyrrolo[2,1-c][1,4]benzodiazepine-3-carbonyl-hydrazide]",,V1a % inhibition at 100 nM: 35%
"O=C(NCc1cccnc1)c1ccc2n1Cc1ccccc1N(C(=O)c1ccc(C3CCCCC3)cc1)C2 [Example 51, 10-(4-Cyclohexyl-benzoyl)-N-(3-pyridinylmethyl)-10,11-dihydro-5H-pyrrolo [2,1-c][1,4]benzodiazepine-3-carboxamide]",-1,
"CC(C)(C)c1ccc(C(=O)c2ccc3n2Cc2ccccc2N(C(=O)c2ccc(C4CCCCC4)cc2)C3)cc1 [Example 5, [4-(tert-Butyl)phenyl][10-(4-cyclohexyl-benzoyl)-10,11-dihydro-5H-pyrrolo[2,1-c][1,4]benzodiazepin-3-yl]methanone]",3,
"CN(CCc1ccncc1)C(=O)c1ccc2n1Cc1ccccc1N(C(=O)c1ccc(C3CCCCC3)cc1)C2 [Example 55, 10-(4-Cyclohexyl-benzoyl)-N-methyl-N-[2(4-pyridinyl)ethyl]-10,11-dihydro-5H-pyrrolo[2,1-c][1,4]benzodiazepine-3-carboxamide]",50,
C/C(=N\C(=O)c1ccc2n1Cc1ccccc1N(C(=O)c1ccc(C3CCCCC3)cc1)C2)N(C)C [Example 18],,IC50: 87.5 nM
"O=C(NCc1ccccn1)c1ccc2n1Cc1ccccc1N(C(=O)c1ccc(C3CCCCC3)cc1)C2 [Example 50, 10-(4-Cyclohexyl-benzoyl)-N-(2-pyridinylmethyl)-10,11-dihydro-5H-pyrrolo[2,1-c][1,4]benzodiazepine-3-carboxamide]",3,
"CN(Cc1cccnc1)C(=O)c1ccc2n1Cc1ccccc1N(C(=O)c1ccc(C3CCCCC3)cc1)C2 [Example 57, 10-(4-Cyclohexyl-benzoyl)-N-methyl-N-(3-pyridinylmethyl)-10,11-dihydro-5H-pyrrolo[2,1-c][1,4]benzodiazepine-3-carboxamide]",-5,
"CC(=O)c1ccc2n1Cc1ccccc1N(C(=O)c1ccc(C3CCCCC3)cc1)C2 [Example 6, 1-[10-(4-Cyclohexyl-benzoyl)-10,11-dihydro-5H-pyrrolo[2,1-c][1,4]benzodiazepin-3-yl]-ethanone]",,IC50: 258 nM
"O=C(NCCc1ccccn1)c1ccc2n1Cc1ccccc1N(C(=O)c1ccc(C3CCCCC3)cc1)C2 [Example 49, 10-(4-Cyclohexyl-benzoyl)-N-[2-(2-pyridinyl)ethyl]-10,11-dihydro-5H-pyrrolo[2,1-c][1,4]benzodiazepine-3-carboxamide]",0,

# Now from value to compound, other results behind:
inhibition at 0.1 µM [%],SMILES,further results
28,"O=C(c1ccc2n1Cc1ccccc1N(C(=O)c1ccc(C3CCCCC3)cc1)C2)N1CCN(CCN2CCOCC2)CC1 [Example 42, [10(4-Cyclohexyl-benzoyl)-10,11-dihydro-5H-pyrrolo[2,1-c][1,4]benzodiazepin-3-yl]{4-[2-(4-morpholinyl)ethyl]-1-piperazinyl}methanone]",
1,"CC(C)N1CCN(C(=O)c2ccc3n2Cc2ccccc2N(C(=O)c2ccc(C4CCCCC4)cc2)C3)CC1 [Example 44, [10-(4-Cyclohexyl-benzoyl)-10,11-dihydro-5H-pyrrolo[2,1-c][1,4]benzodiazepin-3-yl](4-isopropyl-1-piperazinyl)methanone]",
31,"CN(C)CCCN1CCN(C(=O)c2ccc3n2Cc2ccccc2N(C(=O)c2ccc(C4CCCCC4)cc2)C3)CC1 [Example 45, [10-(4-Cyclohexyl-benzoyl)-10,11-dihydro-5H-pyrrolo[2,1-c][1,4]benzodiazepin-3-yl]{4-[3-(dimethylamino)propyl]-1-piperazinyl}methanone]",
-7,"COC(=O)c1ccc2c(c1)N(C(=O)c1ccc(C3CCCCC3)cc1)Cc1ccc(C(=O)N3CCN(C)CC3)n1C2.Cl [Example 1, Methyl 10-(4-cyclohexylbenzoyl)-3-[(4-methyl-1-piperazinyl)carbonyl]-10,11-dihydro-5H-pyrrolo[2,1-c][1,4]benzodiazepine-8-carboxylate hydrochloride salt]",
22,"CN1CCC(N(C)C(=O)c2ccc3n2Cc2ccccc2N(C(=O)c2ccc(C4CCCCC4)cc2)C3)C1 (stereo not shown) [Example 40, 10-(4-Cyclohexyl-benzoyl)-N-methyl-N-(1-methyl-3-pyrrolidinyl)-10,11-dihydro-5H-pyrrolo[2,1-c][1,4]benzodiazepine-3-carboxamide]",
-19,"CN1CCN(C(=O)c2ccc3n2Cc2ccc(C(=O)O)cc2N(C(=O)c2ccc(C4CCCCC4)cc2)C3)CC1 [Example 3, 10-(4-Cyclohexyl-benzoyl)-3-[(4-methyl-1-piperazinyl)carbonyl]-10,11-dihydro-5H-pyrrolo[2,1-c][1,4]benzodiazepine-8-carboxylic acid]",
